From patent US10894817B2, “Fatty acid modified urocortin-2 analogs for the treatment of diabetes and chronic kidney disease” (priority 2016, dated 2021) come the findings set out here.

Usually EC50 stands for the concentration that produces a half-maximal response.

Starred links: 1 amine or outer side, 2 acyl side, 3 side chain; linkers in the order of their positions; H or OH if unused. Non-standard residues stand in square brackets, D forms with d. Residues, ends and D or L forms follow the SMILES beside them. Groups on a side chain read outwards from the residue. *: point of attachment. C20 diacid = O=C(O)CCCCCCCCCCCCCCCCCCC(=O)*; γGlu = O=C(O)[C@H](CCC(=O)[*:2])N[*:1]; NMeI = CC[C@H](C)[C@H](NC)C(=O)O; AEEA = NCCOCCOCC(=O)O Some results are limits rather than exact numbers.

For one test, the target named is T1, human CRHR2b (Homo sapiens, UniProt Q13324).
T1 construct: expressed in transfected cells; host or cells: Chinese Hamster Ovary (CHO) cells, transient transfection
T1 sequence (Q13324 1-438 isoform Q13324-2): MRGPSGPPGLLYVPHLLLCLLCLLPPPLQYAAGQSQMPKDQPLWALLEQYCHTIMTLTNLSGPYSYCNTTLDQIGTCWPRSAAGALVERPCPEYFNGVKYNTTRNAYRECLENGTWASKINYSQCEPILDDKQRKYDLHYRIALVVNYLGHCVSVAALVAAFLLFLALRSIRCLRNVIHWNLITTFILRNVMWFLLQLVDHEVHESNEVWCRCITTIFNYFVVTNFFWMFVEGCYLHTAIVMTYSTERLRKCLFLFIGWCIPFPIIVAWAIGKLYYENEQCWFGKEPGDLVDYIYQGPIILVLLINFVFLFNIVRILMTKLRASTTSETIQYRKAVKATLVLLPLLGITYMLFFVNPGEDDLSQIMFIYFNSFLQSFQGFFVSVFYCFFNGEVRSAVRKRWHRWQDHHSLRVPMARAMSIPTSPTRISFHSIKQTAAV
Put plainly: human CRHR2b cell-based cAMP assay. The following applies: cAMP assay, CHO cells transfected with human CRHR2b; mean ± SEM of runs; read-out: hCRHR2b Average EC50. The method, boiled down: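 ED50 values are means ± SEM over several runs, curve-fitted from cAMP in pmol, calibrated against unlabeled-cAMP standards. Detection was HTRF competition, ratio 665/620 nm, after 30 min agonist exposure at 37 °C.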

The next test addresses T2, human CRHR1 (Homo sapiens, UniProt P34998).
T2 construct: which expresses endogenous human CRHR1; host or cells: Y79 human retinoblastoma cells
T2 sequence (P34998 24-415): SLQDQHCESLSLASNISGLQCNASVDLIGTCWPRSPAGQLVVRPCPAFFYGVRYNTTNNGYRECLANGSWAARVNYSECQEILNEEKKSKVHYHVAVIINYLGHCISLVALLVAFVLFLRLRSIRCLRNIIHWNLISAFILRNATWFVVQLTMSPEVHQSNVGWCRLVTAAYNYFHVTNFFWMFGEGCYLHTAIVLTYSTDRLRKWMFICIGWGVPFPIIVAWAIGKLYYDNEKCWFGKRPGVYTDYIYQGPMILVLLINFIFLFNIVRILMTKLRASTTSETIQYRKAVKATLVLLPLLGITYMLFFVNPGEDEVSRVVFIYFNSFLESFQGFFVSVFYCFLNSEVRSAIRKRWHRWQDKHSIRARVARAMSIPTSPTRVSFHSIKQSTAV
Put plainly: human CRHR1 cell-based cAMP assay (Y79 cells). The note with it: Y79 cells with endogenous human CRHR1, mean ± SEM of runs, read-out: hCRHR1 Average EC50. The protocol:
CRHR agonistic activity is measured in a cell-based cAMP assay. Serial dilutions of the test peptides are made in assay buffer containing Hank's Balanced Salt Solution (HBSS, without phenol red) supplemented with 20 mM HEPES and 0.05% lactalbumin enzymatic hydrolysate (LAH) (“assay buffer”). The highest concentration that is used starts from 1 μM in the human CRHR2b, whereas 100 μM starting concentration is used in the human CRHR1 assay. A one to three dilution of the test peptides is used in both assays.
The human Retinoblastoma cell line Y79 (ATCC #HTB-18), which expresses endogenous human CRHR1, is used in the human CRHR1 assay. The cells are grown in RPMI 1640 (Hyclone, #SH30255) containing 20% fetal bovine serum and 10 mM HEPES, in suspension culture. Cells are centrifuged to remove the culture media and washed once in HBSS supplemented with 20 mM HEPES. The cells are resuspended in the assay buffer and 20,000 cells are used per treatment in the human CRHR1 assay.
The cells are dispensed into Costar 96-well black polystyrene half area EIA/RIA plates (Corning Incorporated, Corning, N.Y.) followed by the addition of the diluted peptides, each at a volume of 20 μL. The agonist induced cAMP levels are detected using a HTRF cAMP Dynamic 2 kit (CisBio, Bedford, Mass.). After incubation at 37° C. for 30 min, the assay is stopped by cell lysis via the addition of 20 μL of d2-labeled cAMP and followed by 20 μL of cryptate-labeled anti-cAMP antibody, as described by the manufacturer. Cellular cAMP (as a result of agonist stimulation) competes with the d2-labeled cAMP for binding to the antibody. HTRF detection is performed on an Envision plate reader (Perkin Elmer Life and Analytical Sciences, Waltham, Mass.) by measuring ratiometric emission at 620 and 665 nm after excitation at 320 nm.
The data are converted to picomoles of cAMP using a standard curve obtained from the same assay performed with varying concentrations of unlabeled cAMP. Percent of the maximum activation of the cells is calculated using converted picomole cAMP data by comparing to the amount of cAMP produced by 1 μM human UCN2 for the human CRHR2b or 1 μM human UCN1 for the human CRHR1 assay. The data are analyzed using a Curve Fitting Tool to calculate ED50. Numeric values shown below in Table 1 represent the mean of multiple runs (number of runs shown in parentheses) following the mean value±SEM.

On to `CC[C@H](C)[C@H](NC)C(=O)N[C@H](C(=O)N[C@@H](CC(C)C)C(=O)N[C@@H](CO)C(=O)N[C@@H](CC(C)C)C(=O)N[C@@H](CC(=O)O)C(=O)N[C@H](C(=O)N1CCC[C@H]1C(=O)N[C@H](C(=O)NCC(=O)N[C@@H](CC(C)C)C(=O)N[C@@H](CC(C)C)C(=O)N[C@@H](CCC(N)=O)C(=O)N[C@H](C(=O)N[C@@H](CC(C)C)C(=O)N[C@@H](CC(C)C)C(=O)N[C@@H](CCC(=O)O)C(=O)N[C@@H](CCC(N)=O)C(=O)N[C@@H](CCC(=O)O)C(=O)N[C@@H](CCCCN)C(=O)N[C@@H](CCC(N)=O)C(=O)N[C@@H](CCC(=O)O)C(=O)N[C@@H](CCCCN)C(=O)N[C@@H](CCC(=O)O)C(=O)N[C@@H](CCCCN)C(=O)N[C@@H](CCC(N)=O)C(=O)N[C@@H](CCC(N)=O)C(=O)N[C@@H](C)C(=O)N[C@@H](CCCCNC(=O)COCCOCCNC(=O)COCCOCCNC(=O)CC[C@H](NC(=O)CC[C@H](NC(=O)CCCCCCCCCCCCCCCCCCC(=O)O)C(=O)O)C(=O)O)C(=O)N[C@H](C(=O)N[C@@H](CC(N)=O)C(=O)N[C@@H](C)C(=O)N[C@@H](CCC(=O)O)C(=O)N[C@H](C(=O)N[C@@H](CC(C)C)C(=O)N[C@@H](C)C(=O)N[C@@H](CCC(N)=O)C(=O)N[C@H](C(N)=O)C(C)C)[C@@H](C)CC)[C@@H](C)O)[C@@H](C)CC)[C@@H](C)CC)C(C)C)C(C)C` [Example 6] (H-[NMeI]VLSLDVPIGLLQILLEQEKQEKEKQQAK([AEEA-AEEA-γGlu-γGlu-C20 diacid])TNAEILAQV-NH2), for which the EC50 was 2.5 ± 1.06 nM on human CRHR2b and > 100000 nM on human CRHR1.
